Results from PubChem BioAssay (NCI).
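Protocol summary: plate cells (96-well), add compound at 5 concentrations, incubate 48 h, interpolate endpoints linearly. Here, GI50 denotes the concentration required for 50% inhibition of growth. TGI marks complete inhibition of growth.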

Experiments:
Assay in all cases: growth of human tumour cells (NCI), 48 h
EKVX NSCLC = system: EKVX NSCLC
OVCAR-3 ovarian = system: OVCAR-3 ovarian
HCT-15 colon = system: HCT-15 colon
SK-OV-3 ovarian = system: SK-OV-3 ovarian
LOX IMVI melanoma = system: LOX IMVI melanoma
A549 NSCLC = system: A549 NSCLC
UACC-62 melanoma = system: UACC-62 melanoma
RXF 393 renal = system: RXF 393 renal
NCI-H23 lung = system: NCI-H23 lung
MCF7 breast = system: MCF7 breast

Row | Compound | TGI (EKVX NSCLC) [µM] | TGI (OVCAR-3 ovarian) [µM] | TGI (HCT-15 colon) [µM] | TGI (SK-OV-3 ovarian) [µM] | TGI (LOX IMVI melanoma) [µM] | TGI (A549 NSCLC) [µM] | TGI (UACC-62 melanoma) [µM] | TGI (RXF 393 renal) [µM] | TGI (NCI-H23 lung) [µM] | TGI (MCF7 breast) [µM] | GI50 (EKVX NSCLC) [nM] | GI50 (RXF 393 renal) [nM] | GI50 (OVCAR-3 ovarian) [nM] | GI50 (HCT-15 colon) [nM] | GI50 (SK-OV-3 ovarian) [nM] | GI50 (NCI-H23 lung) [nM] | GI50 (UACC-62 melanoma) [nM]
1 | COc1ccc(/C=C2\OC(=O)C(Cl)=C2c2ccc(OC)cc2)cc1 | > 100 | > 100 | > 100 | > 100 | > 100 | > 100 | > 100 | – | – | – | – | – | – | – | – | – | –
2 | CCOC(=O)CCC(NC(=O)Cc1ccc(Nc2nc3ccccc3nc2-c2ccccc2)cc1)C(=O)OCC (centres undefined) | > 100 | – | > 100 | > 100 | > 100 | > 100 | > 100 | 44.8 | > 100 | > 100 | – | – | – | – | – | – | –
3 | Nc1ccn(C2CC(O)C(COP(O)(=S)OC3CC(n4ccc(N)nc4=O)OC3CO)O2)c(=O)n1 (centres undefined) | > 100 | > 100 | > 100 | – | > 100 | > 100 | > 100 | – | > 100 | > 100 | – | – | – | – | – | – | –
4 | CCOC(=O)/C(N=Nc1ccc(-n2c(C)nc3ccccc3c2=O)cc1)=C(/C)O | > 100 | 53.1 | > 100 | > 100 | > 100 | > 100 | > 100 | – | > 100 | > 100 | – | – | – | – | – | – | –
5 | CC1C2CC(CC(=O)N2)C1(C)C (centres undefined) | > 100 | > 100 | – | > 100 | – | > 100 | > 100 | > 100 | > 100 | > 100 | – | – | – | – | – | – | –
6 | O=C1CSC2(CC(/C=C/c3ccccc3O)=NN2c2cccc(S(=O)(=O)O)c2)N1c1nc2ccccc2s1 (centres undefined) | > 100 | – | > 100 | – | 39.3 | > 100 | > 100 | > 100 | > 100 | > 100 | – | – | – | – | – | – | –
7 | O=c1c2cc(S(=O)(=O)Nc3ccccc3Cl)ccc2ncn1NS(=O)(=O)c1ccc(Br)cc1 | > 37.5 | > 37.5 | > 37.5 | > 37.5 | > 37.5 | > 37.5 | > 37.5 | – | > 37.5 | > 37.5 | – | – | – | – | – | – | –
8 | NC(=S)NNC(=O)/C(=C/c1ccc(/C=C(\NC(=O)c2ccccc2)C(=O)NNC(N)=S)cc1)NC(=O)c1ccccc1 | > 100 | > 100 | > 100 | > 100 | > 100 | > 100 | > 100 | > 100 | > 100 | – | – | – | – | – | – | – | –
9 | COc1ccc(-c2ccc(-c3ccc(C(=N)N)nc3)s2)cc1 | 3.14 | 3.27 | 2.7 | 3.23 | – | – | 3.38 | 3.34 | 3.46 | – | 1700 | 1770 | 1820 | 1270 | 1700 | 1840 | 1810
10 | CC1CC2OC(=O)C3CC(O)CC(=C23)[C@@]12C[C@@H](c1ccoc1)OC2=O (some centres undefined) | > 100 | > 100 | > 100 | > 100 | > 100 | > 100 | > 100 | > 100 | > 100 | – | – | – | – | – | – | – | –
11 | O=C(O)C(=C\c1ccc2c(c1)OCO2)/C(=C/c1ccc2c(c1)OCO2)C(=O)O | – | > 100 | > 100 | > 100 | > 100 | – | > 100 | > 100 | > 100 | > 100 | – | – | – | – | – | – | –
12 | COc1cc2c(cc1OC)-c1[nH]c3ccc(C#N)cc3c1CC(=O)N2 | > 100 | – | > 100 | > 100 | > 33.6 | > 100 | > 100 | – | > 100 | > 100 | – | – | – | – | – | – | –
13 | COc1cc(OCc2ccc3nc(-c4ccccc4)c(N)nc3c2)cc(OC)c1OC | 50.2 | 42.1 | 39.7 | – | 29.7 | 61.2 | 28.2 | 77 | – | 56.8 | – | – | – | – | – | – | –
14 | NCCCCNCCCN1CC1 | 18.3 | 8.98 | > 100 | – | 3.46 | > 100 | 91.1 | 1.05 | 16.2 | > 100 | – | – | – | – | – | – | –
15 | Cn1nc(Cc2ccc(Cl)cc2)n(N)c1=O | – | – | > 100 | – | – | > 100 | > 100 | > 100 | > 100 | > 100 | – | – | – | – | – | – | –
16 | COc1cc(S(=O)(=O)Nc2ccc(-c3csc(N4C(=O)CSC4c4cccs4)n3)cc2)ccc1Cl (centres undefined) | > 100 | > 100 | > 100 | > 100 | 36.6 | > 100 | – | 25.5 | > 100 | 31.7 | – | – | – | – | – | – | –
17 | CC(C)OP(=O)(OC(C)C)C(C(C)C)N(C)/C(N)=N\C1=NC(C(F)(F)F)(C(F)(F)F)N=C(C(C(F)(F)F)C(F)(F)F)O1 (centres undefined) | 16.1 | 31.6 | – | 19.8 | 3.77 | 14.6 | 4.7 | 4.08 | 14.6 | 32 | – | – | – | – | – | – | –
18 | CSC1=N[C@H](c2ccccc2)CS1 | > 100 | > 100 | > 100 | – | – | > 100 | > 100 | – | > 100 | > 100 | – | – | – | – | – | – | –
19 | C=C1C(=O)C([Si](C)(C)C)=C2C=C(C)C3(CC3)C12C (centres undefined) | 42.2 | > 100 | > 100 | – | 89 | > 100 | > 100 | 60.5 | > 100 | 70.4 | – | – | – | – | – | – | –
20 | O=S(=O)([O-])[O-].[Fe+2].c1ccc(/C(=N\Nc2ccccn2)c2ccccn2)cc1 | 4.72 | 2.67 | 11.3 | 4.25 | 11.8 | 8.82 | 5.29 | 11.7 | 8.68 | – | – | – | – | – | – | – | –
21 | O=P(O)(OCC(O)O)OCC(O)O | > 100 | > 100 | – | > 100 | > 100 | > 100 | – | > 100 | > 100 | – | – | – | – | – | – | – | –
22 | CC1=C/C(=N\OCC(=O)O)CC(c2ccc(C(C)C)cc2)C1 (centres undefined) | > 100 | – | 71.9 | > 100 | – | > 100 | > 100 | > 100 | – | > 100 | – | – | – | – | – | – | –
23 | O=C(c1ccc(Cl)cc1Cl)N(C(=O)N1CCC(c2ccccc2)CC1)c1ccccc1 | > 100 | > 100 | > 100 | > 100 | > 100 | > 100 | > 100 | – | > 100 | > 100 | – | – | – | – | – | – | –
24 | C/C(CN1C(=O)c2ccccc2C1=O)=N\NS(=O)(=O)c1ccc(Br)cc1 | > 100 | > 100 | > 100 | > 100 | > 100 | > 100 | > 100 | > 100 | > 100 | – | – | – | – | – | – | – | –
